Measured values taken from patent publication US20250114338A1, “TETRAHYDRO-PYRIDO[3,4-b]INDOLE ESTROGEN RECEPTOR MODULATORS AND USES THEREOF” (Genentech, Inc., priority 2014, published 2025).

system: ER-alpha MCF7; assay: ER-alpha MCF7 HCS EC50; stated as measured by in vitro cell proliferation assays of Examples 902 and 903; format: cell-based; settings: Homo sapiens, MCF7, MCF7 cells; Table 2
Method in brief: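 MCF7 cells seeded 1000-2000 cells/well for 16 h, then treated with nine-point 1:2 DMSO dilution series in quadruplicate at 37 °C, 5% CO2 for 4 days. Viable cells quantified by CellTiter-Glo ATP luminescence; EC50 calculated. Controls: fulvestrant at final 100 nM, DMSO 0.2% v/v.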

| SMILES | EC50 |
| --- | --- |
| C[C@@H]1Cc2c([nH]c3ccccc23)[C@@H](c2c(F)cc(OCCN3CC(CF)C3)cc2F)N1CC(=O)N(C)C [Example 254, 2-[(1R,3R)-1-[2,6-difluoro-4-[2-[3-(fluoromethyl)azetidin-1-yl]ethoxy]phenyl]-3-methyl-1,3,4,9-tetrahydropyrido[3,4-b]indol-2-yl]-N,N-dimethyl-acetamide] | 40 nM |
| C[C@@H]1Cc2c([nH]c3ccccc23)[C@@H](c2c(F)cc(OCCN3CC(CF)C3)cc2F)N1CC(C)(F)CO (stereo partly drawn) [Example 255, 3-((1R,3R)-1-(2,6-difluoro-4-(2-(3-(fluoromethyl)azetidin-1-yl)ethoxy)phenyl)-3-methyl-1,3,4,9-tetrahydro-2H-pyrido[3,4-b]indol-2-yl)-2-fluoro-2-methylpropan-1-ol] | 0.01 nM |
| CC(C)(F)CN1[C@H](c2c(F)cc(OCCN3CC(CF)C3)cc2F)c2[nH]c3ccccc3c2CC1(C)C [Example 257, (1R)-1-[2,6-difluoro-4-[2-[3-(fluoromethyl)azetidin-1-yl]ethoxy]phenyl]-2-(2-fluoro-2-methyl-propyl)-3,3-dimethyl-4,9-dihydro-1H-pyrido[3,4-b]indole] | 1.09 nM |
| CC(C)(F)CN1[C@@H](c2c(F)cc(OCCN3CC(CF)C3)cc2F)c2[nH]c3ccccc3c2CC1(C)C [Example 258, (S)-1-(2,6-difluoro-4-(2-(3-(fluoromethyl)azetidin-1-yl)ethoxy)phenyl)-2-(2-fluoro-2-methylpropyl)-3,3-dimethyl-2,3,4,9-tetrahydro-1H-pyrido[3,4-b]indole] | 31 nM |
| C[C@@H]1Cc2c([nH]c3c(F)cccc23)[C@@H](c2c(F)cc(OCCN3CC(CF)C3)cc2F)N1CC(C)(C)F [Example 260, (1R,3R)-1-(2,6-difluoro-4-(2-(3-(fluoromethyl)azetidin-1-yl)ethoxy)phenyl)-8-fluoro-2-(2-fluoro-2-methylpropyl)-3-methyl-2,3,4,9-tetrahydro-1H-pyrido[3,4-b]indole] | 0.881 nM |
| C[C@H]1Cc2c([nH]c3c(F)cccc23)[C@H](c2c(F)cc(OCCN3CC(CF)C3)cc2F)N1CC(C)(C)F [Example 262, (1S,3S)-1-(2,6-difluoro-4-(2-(3-(fluoromethyl)azetidin-1-yl)ethoxy)phenyl)-8-fluoro-2-(2-fluoro-2-methylpropyl)-3-methyl-2,3,4,9-tetrahydro-1H-pyrido[3,4-b]indole] | 26 nM |
| C[C@@H]1Cc2c([nH]c3ccccc23)[C@@H](c2c(F)cc(OCCN3CC(CF)C3)cc2F)N1C[C@@H](O)CO [Example 268, (2R)-3-[(1R,3R)-1-[2,6-difluoro-4-[2-[3-(fluoromethyl)azetidin-1-yl]ethoxy]phenyl]-3-methyl-1,3,4,9-tetrahydropyrido[3,4-b]indol-2-yl]propane-1,2-diol] | 8 nM |
| C[C@H](CF)CN1[C@H](c2c(F)cc(OCCN3CC(CF)C3)cc2F)c2[nH]c3ccccc3c2C[C@H]1C [Example 270, (1R,3R)-1-(2,6-difluoro-4-(2-(3-(fluoromethyl)azetidin-1-yl)ethoxy)phenyl)-2-((S)-3-fluoro-2-methylpropyl)-3-methyl-2,3,4,9-tetrahydro-1H-pyrido[3,4-b]indole] | 0.459 nM |
| C[C@@H]1Cc2c([nH]c3ccccc23)[C@@H](c2c(F)cc(OCCN3CC(CF)C3)cc2F)N1C[C@](C)(O)CO [Example 271, (S)-3-((1R,3R)-1-(2,6-difluoro-4-(2-(3-(fluoromethyl)azetidin-1-yl)ethoxy)phenyl)-3-methyl-1,3,4,9-tetrahydro-2H-pyrido[3,4-b]indol-2-yl)-2-methylpropane-1,2-diol] | 5 nM |

Now from value to compound:

| EC50 | SMILES |
| --- | --- |
| 1.69 nM | Cc1cc(OC2CN(CCCF)C2)ccc1[C@@H]1c2[nH]c3ccccc3c2C[C@@H](C)N1CC(C)(C)F [Example 256, (1R,3R)-2-(2-fluoro-2-methyl-propyl)-1-[4-[1-(3-fluoropropyl)azetidin-3-yl]oxy-2-methyl-phenyl]-3-methyl-1,3,4,9-tetrahydropyrido[3,4-b]indole] |
| 0.444 nM | C[C@@H]1Cc2c([nH]c3ccccc23)[C@@H](c2c(F)cc(OC3CN(CC4CC(F)(F)C4)C3)cc2F)N1CC(C)(C)F [Example 259, (1R,3R)-1-[4-[1-[(3,3-difluorocyclobutyl)methyl]azetidin-3-yl]oxy-2,6-difluoro-phenyl]-2-(2-fluoro-2-methyl-propyl)-3-methyl-1,3,4,9-tetrahydropyrido[3,4-b]indole] |
| 0.28 nM | C[C@@H]1Cc2c([nH]c3c(F)cccc23)[C@@H](c2c(F)cc(OC3CN(CCCF)C3)cc2F)N1CC(C)(C)F [Example 261, (1R,3R)-1-(2,6-difluoro-4-((1-(3-fluoropropyl)azetidin-3-yl)oxy)phenyl)-8-fluoro-2-(2-fluoro-2-methylpropyl)-3-methyl-2,3,4,9-tetrahydro-1H-pyrido[3,4-b]indole] |
| 0.359 nM | C[C@H](O)CN1[C@H](c2c(F)cc(OC3CN(CCCF)C3)cc2F)c2[nH]c3ccccc3c2C[C@H]1C [Example 263, (S)-1-((1R,3R)-1-(2,6-difluoro-4-((1-(3-fluoropropyl)azetidin-3-yl)oxy)phenyl)-3-methyl-1,3,4,9-tetrahydro-2H-pyrido[3,4-b]indol-2-yl)propan-2-ol] |
| 0.969 nM | C[C@@H]1Cc2c([nH]c3ccccc23)[C@@H](c2c(F)cc(OC3CN(CCCF)C3)cc2F)N1C[C@@H](C)O [Example 264, (R)-1-((1R,3R)-1-(2,6-difluoro-4-((1-(3-fluoropropyl)azetidin-3-yl)oxy)phenyl)-3-methyl-1,3,4,9-tetrahydro-2H-pyrido[3,4-b]indol-2-yl)propan-2-ol] |
| 1.7 nM | C[C@@H]1Cc2c([nH]c3ccccc23)[C@@H](c2c(F)cc(OCCN3CC(CCl)C3)cc2F)N1CC(C)(C)F [Example 265, (1R,3R)-1-[4-[2-[3-(chloromethyl)azetidin-1-yl]ethoxy]-2,6-difluoro-phenyl]-2-(2-fluoro-2-methyl-propyl)-3-methyl-1,3,4,9-tetrahydropyrido[3,4-b]indole] |
| 10 nM | C[C@@H]1Cc2c([nH]c3ccccc23)[C@@H](c2ccc(OC3CN(CCCF)C3)c(Cl)c2)N1CC(C)(C)F [Example 266, (1R,3R)-1-[3-chloro-4-[1-(3-fluoropropyl)azetidin-3-yl]oxy-phenyl]-2-(2-fluoro-2-methyl-propyl)-3-methyl-1,3,4,9-tetrahydropyrido[3,4-b]indole] |
| 0.744 nM | C[C@@H]1Cc2c([nH]c3ccccc23)[C@@H](c2ccc(OC3CN(CCCF)C3)c(F)c2)N1CC(C)(C)F [Example 267, (1R,3R)-1-[3-fluoro-4-[1-(3-fluoropropyl)azetidin-3-yl]oxy-phenyl]-2-(2-fluoro-2-methyl-propyl)-3-methyl-1,3,4,9-tetrahydropyrido[3,4-b]indole] |
| 1 nM | C[C@@H]1Cc2c([nH]c3ccccc23)[C@@H](c2c(F)cc(OC3CN(C[C@@H]4C[C@H]4F)C3)cc2F)N1CC(C)(C)F [Example 269, (1R,3R)-1-[2,6-difluoro-4-[1-[[(1S,2R)-2-fluorocyclopropyl]methyl]azetidin-3-yl]oxy-phenyl]-2-(2-fluoro-2-methyl-propyl)-3-methyl-1,3,4,9-tetrahydropyrido[3,4-b]indole] |
| 0.685 nM | C[C@@H]1Cc2c([nH]c3ccccc23)[C@@H](c2c(F)cc(OC3CN(CCCF)C3)cc2F)N1CC(C)(C)CF [Example 272, (1R,3R)-1-[2,6-difluoro-4-[1-(3-fluoropropyl)azetidin-3-yl]oxy-phenyl]-2-(3-fluoro-2,2-dimethyl-propyl)-3-methyl-1,3,4,9-tetrahydropyrido[3,4-b]indole] |
